Reference: ChEMBL document CHEMBL5625249, “Optimization and antifungal activity of quinoline derivatives linked to chalcone moiety combined with FLC against Candida albicans” (Eur J Med Chem, 2023)
Activity calls are given as the source filed them. No cut-off for these calls is given here.

Experiments:
[1] = test system: Candida albicans; assay: Antifungal activity against clinical FLC-resistant Candida albicans 808 measured after 24 hrs by microdilution method; type: functional
[2] = test system: Candida albicans; assay: Antifungal activity against clinical FLC-resistant Candida albicans 602 measured after 24 hrs by microdilution method; type: functional
[3] = test system: Candida albicans; assay: Antifungal activity against clinical FLC-resistant Candida albicans 550 measured after 24 hrs by microdilution method; type: functional
[4] = test system: Candida albicans; assay: Antifungal activity against clinical FLC-resistant Candida albicans 3816 measured after 24 hrs by microdilution method; type: functional
[5] = test system: Candida albicans; assay: Synergistic antifungal activity against clinical FLC-resistant Candida albicans 187 measured after 24 hrs in presence of fluconazole by microdilution method; type: functional
[6] = test system: Candida albicans; assay: Synergistic antifungal activity against clinical FLC-resistant Candida albicans 799 measured after 24 hrs by microdilution method; type: functional
[7] = test system: Candida albicans; assay: Synergistic antifungal activity against FLC-resistant Candida albicans ATCC 10231 measured after 24 hrs by microdilution method; type: functional
[8] = test system: Candida albicans; assay: Synergistic antifungal activity against clinical FLC-resistant Candida albicans 808 assessed as fractional inhibitory concentration index measured after 24 hrs by microdilution method; type: functional
[9] = test system: Candida albicans; assay: Synergistic antifungal activity against FLC-resistant Candida albicans ATCC 14053 assessed as inhibition of rhodamine 6G efflux incubated for 4 hrs under shaking condition in presence of fluconazole by Rhodamine 6G staining based fluorescence assay; type: functional, organism-based
[10] = test system: Candida albicans; assay: Synergistic antifungal activity against FLC-resistant Candida albicans ATCC 14053 cultured in spider medium assessed as inhibition of hyphal formation at 1 ug/ml measured after 2 hrs in presence of fluconazole by inverted microscopy; type: functional, organism-based; conditions: dose 1.0 µg/ml
[11] = test system: Candida albicans; assay: Synergistic antifungal activity against FLC-resistant Candida albicans ATCC 14053 assessed as inhibition of hyphal formation by measuring down regulation of HWP1 gene expression at 1 ug/ml measured after 16 to 18 hrs in presence of fluconazole by qRT-PCR analysis; type: functional, organism-based; conditions: dose 1.0 µg/ml, time 16-18 hrs
[12] = test system: Candida albicans; assay: Synergistic antifungal activity against FLC-resistant Candida albicans ATCC 14053 cultured in SD +10% FBS liquid medium assessed as inhibition of hyphal formation at 1 ug/ml measured after 4 to 8 hrs in presence of fluconazole by inverted microscopy; type: functional, organism-based; conditions: dose 1.0 µg/ml, time 4-8 hrs
[13] = test system: Candida albicans; assay: Induction of mitochondrial membrane potential loss in FLC-resistant Candida albicans ATCC 14053 at 1 ug/mL measured after 16 to 18 hrs in presence of fluconazole by JC-1 staining based fluorescence assay; type: functional, organism-based; conditions: dose 1.0 µg/ml, time 16-18 hrs
[14] = Toxicity in Balb/c mouse assessed as death at 15 mg/kg, ig measured daily for 6 days; type: organism-based; conditions: in vivo, po, 144 h, time 6 day
[15] = Toxicity in Balb/c mouse assessed as weight loss at 15 mg/kg, ig measured daily for 6 days; type: organism-based; conditions: in vivo, po, 144 h, time 6 day
[16] = Toxicity in Balb/c mouse assessed as weight loss at 7.5 to 15 mg/kg, ig measured daily for 6 days in presence of fluconazole; type: organism-based; conditions: in vivo, po, 144 h, dose 7.5-15 mg/kg, time 6 day
[17] = test system: Candida albicans; assay: In vivo antifungal activity against FLC-resistant Candida albicans ATCC 14053 infected in Balb/c mouse assessed as reduction in liver fungal load at 15 mg/kg, ig measured after 6 days; type: functional, organism-based; conditions: time 6.0 day
[18] = test system: Candida albicans; assay: In vivo antifungal activity against FLC-resistant Candida albicans ATCC 14053 infected in Balb/c mouse assessed as increase in organ coefficients of thymus at 7.5 to 15 mg/kg, ig measured after 6 days in presence of fluconazole; type: functional, organism-based; conditions: dose 7.5-15 mg/kg, time 6.0 day
[19] = test system: Candida albicans; assay: In vivo antifungal activity against FLC-resistant Candida albicans ATCC 14053 infected in Balb/c mouse assessed as restoration of normal glomeruli morphology at 15 mg/kg, ig measured after 6 days by H and E staining based histopathological analysis; type: functional, organism-based; conditions: time 6.0 day
[20] = test system: Candida albicans; assay: In vivo antifungal activity against FLC-resistant Candida albicans ATCC 14053 infected in Balb/c mouse assessed as reduction in severity of lesions in lungs at 15 mg/kg, ig measured after 6 days by H and E staining based histopathological analysis; type: functional, organism-based; conditions: time 6.0 day
[21] = test system: Candida albicans; assay: In vivo antifungal activity against FLC-resistant Candida albicans ATCC 14053 infected in Balb/c mouse assessed as removal of colonized fungi at 15 mg/kg, ig measured after 6 days by H and E staining based histopathological analysis; type: functional, organism-based; conditions: time 6.0 day
[22] = test system: Candida albicans; assay: In vivo antifungal activity against FLC-resistant Candida albicans ATCC 14053 infected in Balb/c mouse assessed as reduction in internal fungal growth at 7.5 to 15 mg/kg, ig measured after 6 days in presence of fluconazole by H and E staining based histopathological analysis; type: functional, organism-based; conditions: dose 7.5-15 mg/kg, time 6.0 day
[23] = Cytotoxicity against human 16-HBE cells assessed as cell survival at 90 ug/ml measured after 24 hrs by MTS assay relative to control; type: toxicity, cell-based; conditions: 16-HBE cells (16HBE14o-), at 90 µg/mL, read-out: Survival

Structure (SMILES): CN1CCN(c2nc3ccccc3cc2/C=C/C(=O)c2ccc(N3CCN(Cc4ccc(C(F)(F)F)cc4)CC3)cc2)CC1
- MIC80 [1]: > 40 µg/mL
- MIC80 [2]: > 40 µg/mL
- MIC80 [3]: > 40 µg/mL
- MIC80 [4]: > 40 µg/mL
- MIC80 [5]: 0.54 µg/mL
- MIC80 [6]: 1.12 µg/mL
- MIC80 [7]: 5.58 µg/mL
- fractional inhibitory concentration index (FICI) [8]: 0.01
- inhibition [9]: Active
- inhibition [10]: inactive
- inhibition [11]: Active
- inhibition [12]: Active
- Activity [13]: Active
- Activity [14]: Non-Toxic
- Activity [15]: Non-Toxic
- Activity [16]: Non-Toxic
- Activity [17]: inactive
- Activity [18]: Active
- Activity [19]: inactive
- Activity [20]: inactive
- Activity [21]: inactive
- Activity [22]: Active
- viability at 24 h, 90 ug/ml [23]: 76.5%
